Source: article PMC8719060, “Characterization of a Novel Chromosome-Encoded AmpC β-Lactamase Gene, blaPRC–1, in an Isolate of a Newly Classified Pseudomonas Species, Pseudomonas wenzhouensis A20, From Animal Farm Sewage” (Frontiers in Microbiology, 2021)

Target: PRC-1 (Pseudomonas wenzhouensis, UniProt Z9ZEF5EQX5)
Experiment: nitrocefin hydrolysis inhibition, spectrophotometry
Type: biochemical
Conditions: 100 μM nitrocefin, 5 min preincubation, 37°C; covalent

PRC-1, sequence (Z9ZEF5EQX5 23-379 limits assumed): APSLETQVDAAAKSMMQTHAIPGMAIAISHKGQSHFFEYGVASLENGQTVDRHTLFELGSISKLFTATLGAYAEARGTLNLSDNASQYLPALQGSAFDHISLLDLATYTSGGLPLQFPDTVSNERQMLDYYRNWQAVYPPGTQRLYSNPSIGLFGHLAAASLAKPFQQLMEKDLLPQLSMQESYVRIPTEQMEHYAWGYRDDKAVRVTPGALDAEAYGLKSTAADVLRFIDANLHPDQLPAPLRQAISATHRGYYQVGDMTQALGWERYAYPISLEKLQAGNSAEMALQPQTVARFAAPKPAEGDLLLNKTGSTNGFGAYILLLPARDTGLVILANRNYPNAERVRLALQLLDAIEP

SMILES | IC50 [µM]
O=C(O)[C@H]1/C(=C/CO)O[C@@H]2CC(=O)N21 [clavulanic acid] | 23.4
NC(=O)[C@@H]1CC[C@@H]2CN1C(=O)N2OS(=O)(=O)O [avibactam] | 0.000392
